Test results: US20070111208A1, “Determination of free fractions” (Bayer HealthCare AG, priority 2003, published 2007)

Experiments:
[1] = test system: rat plasma; assay: Erythrocyte plasma partitioning (rat plasma); type: in vitro ADME; conditions: Method B (erythrocyte plasma partitioning); Wistar rat, male; about 200 μg/l
Procedure: Ultrafiltration, equilibrium dialysis and the determination of the free fraction of a drug via distribution between erythrocytes and plasma were performed as previously described^8,12.

[2] = test system: rat plasma; assay: Protein binding via distribution between diluted plasma and Transil (rat plasma); type: in vitro ADME; conditions: Method A (Transil); Wistar rat, male; about 200 μg/l; LC/MS-MS or HPLC
Procedure: Protein binding of all drugs was determined via partitioning between diluted plasma and Transil® in vitro. All incubations were performed in glass tubes. An isotonic potassium phosphate buffer, pH 7.4 (Dulbeccos PBS, Sigma D8534) was used for diluting the plasma.
The total incubation volume was generally between 0.3 and 1 ml. The diluted plasma (150 to 980 μl) of the test species was pipetted into glass tubes and Transil® (10 to 300 μl) was added. The test substance dissolved in a small volume of a suitable solvent was added to the Transil®-plasma suspensions.
The degree of the dilution and the Transil®-volume should be chosen with respect to the expected fu value. […]
The radioactivity concentration in the suspension was determined directly after incubation. The radioactivity concentration (or the drug concentration in the case of HPLC or LC/MS-MS analytics) in plasma was determined after centrifugation.
The free fraction in diluted plasma was calculated as the ratio of the partition coefficients for the Transil®/plasma′ (MAplasma) and the Transil®/buffer distribution (MAbuffer).
In a second experiment, the total amount in the Transil®-plasma suspension and the concentration in diluted plasma, Cplasma′, were determined. The partitioning between Transil® and the diluted plasma (the apparent membrane affinity in diluted plasma), MAplasma′, was calculated as: [formula] […]

fu [1]: 1.49%
fu [2]: 1.62%
Compound: O=C(NC[C@H]1CN(c2ccc(N3CCOCC3=O)cc2)C(=O)O1)c1ccc(Cl)s1 [Drug III]
